From US12252493B2, “Imidazo[1,2-c]pyrimidine derivatives as PRC2 inhibitors for treating cancer” (Mirati Therapeutics, Inc., priority 2019, dated 2025)
Where two headings read alike, the source gives them in different places.

Tests used:
[1] = molecular target: purified human, His-tagged PRC2 complex (Homo sapiens (Human), UniProt O75530); experiment: Hot Spot HMT assay of PRC2 enzymatic activity (tritiated methyl transfer from SAM to core histone); assay type: biochemical; conditions: 10 nM purified PRC2 complex, 0.05 mg/ml core histone H3, 1 uM 3H-SAM, 1 hr at 30° C.
Description: Ten-point dose-response curves for compounds of the present invention were determined using a Hot Spot HMT assay (Reaction Biology Corp; see Horiuchi et al., Assay Drug Dev Technol. (2013) 4: 227-236 doi: 10.1089/adt.2012.480). The assay uses purified human, His-tagged PRC2 complex, including N-terminal His-tagged EZH2 enzyme, N-terminal Flag-tagged embryonic ectoderm development protein (EED), N-terminal His-tagged suppressor of zeste 12 (SUZ12), N-terminal His-tagged AEBP2, and N-terminal His-tagged RbAp48. In this assay, the transfer of the tritiated methyl group from radiolabeled S-adenosyl methionine (SAM) to purified core histone protein by EZH2 is quantitated after filtration to determine the activity of the core PRC2 complex in the presence and absence of compound.
Briefly, compounds of the present invention were solubilized in DMSO and a series of 10, three-fold serial dilutions were made for each compound in 15% DMSO. The initial starting concentration for the serial dilutions of each compound was 1.0 μM. Control samples lacking compound, EZH2 enzyme or various reaction components also were prepared and processed in parallel with compound test samples. SAH (S-(5-adenosyl)-L-homocysteine) was used as a positive control for assay validation.
An aliquot of each serial dilution of test compound was added to deep 384 well plate using Acoustic Technology instrument (Echo 550, LabCyte) containing reaction buffer (50 mM Tris-HCl (pH 8.)), 0.01% Brij35, 1 mM EDTA, 1 mM DTT, 1 mM PMSF and 1% DMSO), 10 nM purified PRC2 complex and 0.05 mg/ml core histone H3 in a 5 μl volume. The reaction was mixed gently and then pre-incubated for 20 min at 30° C. The enzymatic reaction was initiated by adding 1 uM S-Adenosyl-L-[methyl ^3H]methionine and incubated for 1 hr at 30° C. After 1 hr, the reaction product was detected using a filter binding method and the amount of tritiated H3 core histone was quantitated using a scintillation counter. The IC50 value for each compound was determined from each 10-point dose-response curve using GraphPad Prism software and the results for exemplary compounds of Formula (I) are shown in Table 5. Key: A=≤250 nM; B=>250 nM—≤500 nM; and C=>500 nM—≤2 μM.

[2] = tested on: PRC2-mediated histone H3 methylation (H3 Lys27 trimethylation) in Pfeiffer cells expressing mutant EZH2 (A677G); experiment: Tri-Methyl Histone H3 (Lys 27) sandwich ELISA in Pfeiffer cells; assay type: cell-based, human; conditions: read-out: IC50, Inhibition of EZH2-mediated Histone H3 Trimethylation
From the text: The Pfeiffer cell line was established from a […] from a patient having metastatic diffuse large B-cell lymphoma (DLBCL). This cell line expresses a mutant form of the EZH2 enzyme (A677G) that results in enhanced EZH2 activity leading to increased methylation of histone H3 Lys27. Increased trimethylation of histone H3 Lys27 is believed to be implicated in tumorgenesis and poor clinical prognosis in lymphomas (McCabe et al., (2012) Nature 492:108-112).
Inhibition of PRC2-mediated histone H3 methylation by compounds of Formula (I) was measured by ELISA using a Tri-Methyl Histone H3 (Lys 27) Sandwich ELISA Kit (Cell Signaling Tech #7866C) in accordance with the manufacturer's instructions. Briefly, Pfeiffer cells were cultured in RPMI medium supplemented with 10% fetal bovine serum and 1% penicillin and 1% streptomycin in 96 well culture plates at 37° C. to a density of 8000 cells/90 μl/well and the cells were harvested. A series of 3-fold serial dilutions of each test compound of Formula (I) were prepared in RPMI medium and added to the cells at final concentrations ranging from 1 μM to 0.15 nM. The plates were incubated at 37° C. for 96 hours.
After incubation, the cells were pelleted by centrifugation in a pre-cooled 4° C. rotor at 1,100 rpm for 10 min and the supernatant was removed by aspiration. The cell pellet was resuspended in 55 μl of Lysis Buffer (0.4M HCl) and incubated on ice with periodic shaking for 30 minutes. The lysed cells were subjected to centrifugation at 4,200 rpm for 10 min at 4° C. and the supernatant containing acid-soluble proteins was collected and the remainder discarded. The acid-soluble proteins were brought to a neutral pH by the addition of 20 μl of Neutralization Buffer (1 M Sodium phosphate, dibasic (pH 12.5), 2.5 mM DTT and 1 mM PMSF) and the neutralized lysates were analyzed by ELISA.
A 65 μl aliquot of each cell lysate was added to a well of a microwell strip, the microwells were sealed using tape and incubated either at 37° C. for two hours or at 4° C. overnight. After incubation, the tape was removed at the microwells were washed four times using 200 μl of 1× Wash Buffer. To each washed microwell, a 100 μl aliquot of an anti-trimethyl histone H3 Lys27 Detection Antibody solution was added and the microwells were incubated at 37° C. for one hour. The Detection Antibody solution was removed by aspiration and the wells were washed four times each using 200 μl of 1× Wash Buffer.
A 100 μl aliquot of an HRP-linked secondary antibody was added to each well, the wells were sealed with tape and incubated at 37° C. for 30 min. The HRP-linked secondary antibody solution was removed by aspiration and the wells were washed four times using 200 μl of 1× Wash Buffer. A 100 μl aliquot of a TMB substrate was added to each well, the wells were sealed with tape and incubated at 37° C. for 10 min or 25° C. for 30 min. The reaction was stopped by the addition of 100 μl aliquot of a STOP solution and the plate was shaken briefly. The degree of histone H3 trimethylation was determined using a spectrophotometric readout by measuring the absorbance at 450 nm and then calculating the amount of trimethylated histone H3. Key: A=≤250 nM; B=>250 nM-≤500 nM; and C=>500 nM-≤5 μM.

[3] = tested on: Karpas 422 cells expressing mutant EZH2 (Y641N); experiment: Karpas 422 cell viability (Cell Titre Glo) assay; assay type: cell-based, human; conditions: CTG viability, time point (Day 4, Day 7 or Day 11) not given, read-out: IC50, Inhibiting Proliferation of Cells Expressing an Activating Mutant Form of EZH2
Description: Karpas 422 cell line is a human B cell non-Hodgkin's lymphoma cell line established from a patient having DLBCL. This EZH2 heterozygotic cell line expresses a mutant form of EZH2 enzyme (Y641N) that increases histone H3 methylation and this mutation has been implicated in the tumorgenesis of lymphomas, such as DLBCL.
Karpas 422 cells (PHE cat no., 06101702) were cultured in RPMI medium supplemented with 20% fetal bovine serum and 1% penicillin/1% streptomycin and plated at a density of 1000 cells/90 μl/well in 96 well white assay plates. A dose response curve for compounds of the present invention was determined by adding a 10 μl aliquot of stock solutions of varying concentrations of compounds to the same medium in each well, over a concentration range of 10 μM using 3-fold dilutions to a final concentration of 1.5 nM. The plates were incubated at 37° C. for predetermined time periods, Day 4, Day 7, or Day 11, and the viability of the cells was measured using a CTG assay kit (Cell Titre Glo; Promega cat. no G7573) on Day 4 and Day 7 in accordance with the manufacturer's instructions.
For the viability assay for the Day 11 plates, the plates were subjected to centrifugation at 1100 rpm for five minutes on Day 7 and the supernatant was removed by aspiration. The cells were resuspended in 90 μl aliquot of the appropriate growth medium lacking the compound followed by addition of 10 μl of a 10× stock of the same compound at the same concentration. The viability of the Day 11 cells was measured using the CTG assay kit described above in accordance with the manufacturer's instructions. The IC50 values for each compound at each predetermined time point were calculated using Graph pad PRISM software and the results are shown in Table 7. Key: A=≤250 nM; B=>250 nM-≤500 nM; C=>500 nM-≤5 μM and N.D.=not determined.

[4] = read-out: IC50, Inhibition of PRC2-mediated Enzymatic Activity
[5] = Homo sapiens, Pfeiffer cells, 96 hours incubation, ELISA

Chain of purified human, His-tagged PRC2 complex (Q15910 whole entry): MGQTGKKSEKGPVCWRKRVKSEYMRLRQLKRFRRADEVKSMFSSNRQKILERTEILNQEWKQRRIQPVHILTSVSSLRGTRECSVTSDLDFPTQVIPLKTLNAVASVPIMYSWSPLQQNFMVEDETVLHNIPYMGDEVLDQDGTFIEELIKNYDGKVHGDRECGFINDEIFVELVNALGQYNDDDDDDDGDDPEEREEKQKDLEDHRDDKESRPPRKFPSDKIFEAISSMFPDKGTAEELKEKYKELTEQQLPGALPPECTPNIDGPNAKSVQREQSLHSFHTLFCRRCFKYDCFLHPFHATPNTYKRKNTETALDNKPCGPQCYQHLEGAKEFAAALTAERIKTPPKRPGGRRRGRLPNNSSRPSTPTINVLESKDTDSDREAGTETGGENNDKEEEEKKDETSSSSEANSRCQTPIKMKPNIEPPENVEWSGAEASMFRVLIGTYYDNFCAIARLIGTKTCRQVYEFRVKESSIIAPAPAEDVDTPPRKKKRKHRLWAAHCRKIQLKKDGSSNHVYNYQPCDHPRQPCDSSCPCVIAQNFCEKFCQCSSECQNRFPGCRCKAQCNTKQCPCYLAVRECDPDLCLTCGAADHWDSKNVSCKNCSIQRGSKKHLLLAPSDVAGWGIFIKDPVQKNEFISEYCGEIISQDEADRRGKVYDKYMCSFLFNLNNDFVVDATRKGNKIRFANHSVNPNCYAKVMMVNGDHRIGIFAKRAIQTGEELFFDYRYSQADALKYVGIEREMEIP
Chain of purified human, His-tagged PRC2 complex (O75530 whole entry): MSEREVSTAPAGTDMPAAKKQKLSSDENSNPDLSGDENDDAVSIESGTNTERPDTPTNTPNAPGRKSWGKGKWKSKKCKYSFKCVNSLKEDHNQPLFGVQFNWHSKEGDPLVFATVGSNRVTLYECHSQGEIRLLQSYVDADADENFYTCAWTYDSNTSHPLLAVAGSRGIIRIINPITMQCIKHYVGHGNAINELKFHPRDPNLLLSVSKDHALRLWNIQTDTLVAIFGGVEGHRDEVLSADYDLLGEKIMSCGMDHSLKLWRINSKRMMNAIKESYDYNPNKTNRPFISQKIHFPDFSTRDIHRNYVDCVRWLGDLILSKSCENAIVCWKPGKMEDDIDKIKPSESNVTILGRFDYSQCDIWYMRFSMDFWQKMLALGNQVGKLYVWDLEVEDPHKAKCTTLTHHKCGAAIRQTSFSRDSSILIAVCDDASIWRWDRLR
Chain of purified human, His-tagged PRC2 complex (Q15022 whole entry partner): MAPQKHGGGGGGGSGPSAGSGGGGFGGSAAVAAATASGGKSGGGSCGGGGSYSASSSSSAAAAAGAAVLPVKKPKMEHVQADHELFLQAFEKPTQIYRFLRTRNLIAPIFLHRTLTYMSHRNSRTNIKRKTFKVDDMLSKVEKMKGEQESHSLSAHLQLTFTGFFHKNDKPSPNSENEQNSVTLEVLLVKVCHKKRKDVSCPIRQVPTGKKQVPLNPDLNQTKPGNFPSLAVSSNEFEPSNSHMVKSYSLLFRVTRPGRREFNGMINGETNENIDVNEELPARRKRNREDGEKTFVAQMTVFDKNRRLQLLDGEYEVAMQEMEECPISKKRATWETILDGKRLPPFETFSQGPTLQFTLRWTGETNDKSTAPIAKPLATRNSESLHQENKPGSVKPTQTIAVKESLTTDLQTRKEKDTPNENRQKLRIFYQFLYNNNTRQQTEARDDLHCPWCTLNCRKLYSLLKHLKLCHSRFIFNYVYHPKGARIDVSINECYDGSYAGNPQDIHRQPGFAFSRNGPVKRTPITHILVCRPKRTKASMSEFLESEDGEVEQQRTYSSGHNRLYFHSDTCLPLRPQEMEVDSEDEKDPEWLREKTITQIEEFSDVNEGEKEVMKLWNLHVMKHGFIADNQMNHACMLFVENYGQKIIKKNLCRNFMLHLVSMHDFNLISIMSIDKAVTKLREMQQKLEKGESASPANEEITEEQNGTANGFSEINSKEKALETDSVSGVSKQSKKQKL
Chain of purified human, His-tagged PRC2 complex (Q6ZN18 whole entry partner): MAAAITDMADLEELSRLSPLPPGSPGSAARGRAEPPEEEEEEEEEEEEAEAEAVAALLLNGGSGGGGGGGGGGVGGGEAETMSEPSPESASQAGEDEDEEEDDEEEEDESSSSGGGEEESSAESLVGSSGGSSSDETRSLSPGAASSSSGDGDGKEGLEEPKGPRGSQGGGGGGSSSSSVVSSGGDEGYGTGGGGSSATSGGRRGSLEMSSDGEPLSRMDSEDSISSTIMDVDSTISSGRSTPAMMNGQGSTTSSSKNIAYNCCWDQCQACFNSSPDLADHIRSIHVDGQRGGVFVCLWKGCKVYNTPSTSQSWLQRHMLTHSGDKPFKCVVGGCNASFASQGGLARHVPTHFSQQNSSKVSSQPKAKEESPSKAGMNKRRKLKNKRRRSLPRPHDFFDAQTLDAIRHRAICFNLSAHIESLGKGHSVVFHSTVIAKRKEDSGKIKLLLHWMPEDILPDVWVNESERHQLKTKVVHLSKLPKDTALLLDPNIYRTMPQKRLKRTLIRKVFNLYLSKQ
Chain of purified human, His-tagged PRC2 complex (Q09028 whole entry partner): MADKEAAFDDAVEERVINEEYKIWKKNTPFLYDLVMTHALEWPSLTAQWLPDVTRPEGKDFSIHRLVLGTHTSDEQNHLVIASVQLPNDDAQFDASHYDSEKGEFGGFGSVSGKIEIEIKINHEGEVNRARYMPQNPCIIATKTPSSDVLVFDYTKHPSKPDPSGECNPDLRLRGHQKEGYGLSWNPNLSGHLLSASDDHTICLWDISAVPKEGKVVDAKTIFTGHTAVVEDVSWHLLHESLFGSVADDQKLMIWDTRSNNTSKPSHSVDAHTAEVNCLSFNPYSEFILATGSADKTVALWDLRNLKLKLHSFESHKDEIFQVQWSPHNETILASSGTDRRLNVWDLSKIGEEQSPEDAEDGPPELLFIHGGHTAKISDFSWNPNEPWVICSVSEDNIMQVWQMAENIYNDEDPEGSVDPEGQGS

Compound	IC50 [1, 4] [nM]	IC50 [2, 5] [nM]	IC50 ([3]; Homo sapiens) [nM]	IC50 ([1]; IC50, Inhibition of PRC2-mediated Enzymatic Activity) [nM]	IC50 ([2]; Homo sapiens, Pfeiffer, 96 h) [nM]	IC50 ([2]; Pfeiffer cells, 96 hours incubation, ELISA) [nM]	IC50 [3] [nM]
Cc1cc(S(C)(=O)=O)ccc1-c1cnc(NCc2c(F)ccc3c2CCO3)n2cc(CN)nc12 [Example 13, 2-(aminomethyl)-N-((5-fluoro-2,3-dihydrobenzofuran-4-yl)methyl)-8-(2-methyl-4-(methylsulfonyl)phenyl)imidazo[1,2-c]pyrimidin-5-amine]	< 250	< 250	< 250				
Cc1cc(C(=O)N(C)C)ncc1-c1cnc(NCc2c(F)ccc3c2CCO3)n2cc(C(C)N)nc12 (stereo not drawn) [Example 35, 5-(2-(1-aminoethyl)-5-(((5-fluoro-2,3-dihydrobenzofuran-4-yl)methyl)amino)imidazo[1,2-c]pyrimidin-8-yl)-N,N,4-trimethylpicolinamide]	< 250	< 250	< 250				
Cc1cccc(-c2cnc(NCc3c(F)ccc4c3CCO4)n3cc(CN)nc23)c1 [Example 21, 2-(aminomethyl)-N-((5-fluoro-2,3-dihydrobenzofuran-4-yl)methyl)-8-(m-tolyl)imidazo[1,2-c]pyrimidin-5-amine]	500 to 2000	500 to 5000	500 to 5000				
Cc1cc(-c2cnc(NCc3c(F)ccc4c3CCO4)n3cc(C(C)N)nc23)n(C)n1 (single isomer, unassigned) [Example 11, 2-(1-aminoethyl)-8-(1,3-dimethyl-1H-pyrazol-5-yl)-N-((5-fluoro-2,3-dihydrobenzofuran-4-yl)methyl)imidazo[1,2-c]pyrimidin-5-amine]	500 to 2000	< 250	< 250				
Cc1cc(-c2cnc(NCc3c(F)ccc4c3CCO4)n3cc(CNCCS(=O)(=O)F)nc23)n(C)n1 [Example 27, 2-(((8-(1,3-dimethyl-1H-pyrazol-5-yl)-5-(((5-fluoro-2,3-dihydrobenzofuran-4-yl)methyl)amino)imidazo[1,2-c]pyrimidin-2-yl)methyl)amino)ethane-1-sulfonyl fluoride]			500 to 5000	500 to 2000	500 to 5000		
Cc1cc(-c2cnc(NCc3c(F)ccc4c3CCO4)n3cc(CN)nc23)n(C)n1 [Example 10, 2-(aminomethyl)-8-(1,3-dimethyl-1H-pyrazol-5-yl)-N-((5-fluoro-2,3-dihydrobenzofuran-4-yl)methyl)imidazol[1,2-c]pyramidin-5-amine]	< 250	< 250	< 250				
Cc1cc(-c2cnc(NCc3c(F)ccc4c3CCO4)n3cc(C(C)N)nc23)n(C)n1 (single isomer, unassigned) [Example 12, 2-(1-aminoethyl)-8-(1,3-dimethyl-1H-pyrazol-5-yl)-N-((5-fluoro-2,3-dihydrobenzofuran-4-yl)methyl)imidazo[1,2-c]pyrimidin-5-amine]	< 250					< 250	< 250
Cc1cc(S(C)(=O)=O)ccc1-c1cnc(NCc2c(F)ccc3c2CCO3)n2cc(C(C)N)nc12 (stereo not drawn) [Example 34, 2-(1-aminoethyl)-N-((5-fluoro-2,3-dihydrobenzofuran-4-yl)methyl)-8-(2-methyl-4-(methylsulfonyl)phenyl)imidazo[1,2-c]pyrimidin-5-amine]	< 250	< 250	< 250				
NCc1cn2c(NCc3c(F)ccc4c3CCO4)ncc(-c3ccccc3Cl)c2n1 [Example 22, 2-(aminomethyl)-8-(2-chlorophenyl)-N-((5-fluoro-2,3-dihydrobenzofuran-4-yl)methyl)imidazo[1,2-c]pyrimidin-5-amine]	500 to 2000	500 to 5000	500 to 5000				
CC(N)c1cn2c(NCc3c(F)ccc4c3CCO4)ncc(-c3cc(C(F)(F)F)nn3C)c2n1 (stereo not drawn) [Example 36, 2-(1-aminoethyl)-N-((5-fluoro-2,3-dihydrobenzofuran-4-yl)methyl)-8-(1-methyl-3-(trifluoromethyl)-1H-pyrazol-5-yl)imidazo[1,2-c]pyrimidin-5-amine]	< 250	< 250	< 250				
NCc1cn2c(NCc3c(F)ccc4c3CCO4)ncc(-c3cc(F)cc(F)c3)c2n1 [Example 16, 2-(aminomethyl)-8-(3,5-difluorophenyl)-N-((5-fluoro-2,3-dihydrobenzofuran-4-yl)methyl)imidazo[1,2-c]pyrimidin-5-amine]	500 to 2000	500 to 5000	500 to 5000				
